Earlier results in patent US20060148877A1, “Pharmaceutical formulations of celcoxib” (TransForm Pharmaceuticals, Inc., priority 2002, published 2006).

Details: commercially available form (CELEBREX), neutral molecule

solubility in water: essentially insoluble in water
Structure (SMILES): Cc1ccc(-c2cc(C(F)(F)F)nn2-c2ccc(S(N)(=O)=O)cc2)cc1 [celecoxib, 4-[5-(4-methylphenyl)-3-(trifluoromethyl)-1H-pyrazol-1-yl]benzenesulfonamide]
